For experiment [1], the target named is T1, EIF2AK3 (PERK) catalytic domain (amino acids 536-1116) (Homo sapiens, UniProt Q9NZJ5).
T1 construct: EIF2AK3 (PERK) catalytic domain (amino acids 536-1116)
T1 sequence (Q9NZJ5 536-1116): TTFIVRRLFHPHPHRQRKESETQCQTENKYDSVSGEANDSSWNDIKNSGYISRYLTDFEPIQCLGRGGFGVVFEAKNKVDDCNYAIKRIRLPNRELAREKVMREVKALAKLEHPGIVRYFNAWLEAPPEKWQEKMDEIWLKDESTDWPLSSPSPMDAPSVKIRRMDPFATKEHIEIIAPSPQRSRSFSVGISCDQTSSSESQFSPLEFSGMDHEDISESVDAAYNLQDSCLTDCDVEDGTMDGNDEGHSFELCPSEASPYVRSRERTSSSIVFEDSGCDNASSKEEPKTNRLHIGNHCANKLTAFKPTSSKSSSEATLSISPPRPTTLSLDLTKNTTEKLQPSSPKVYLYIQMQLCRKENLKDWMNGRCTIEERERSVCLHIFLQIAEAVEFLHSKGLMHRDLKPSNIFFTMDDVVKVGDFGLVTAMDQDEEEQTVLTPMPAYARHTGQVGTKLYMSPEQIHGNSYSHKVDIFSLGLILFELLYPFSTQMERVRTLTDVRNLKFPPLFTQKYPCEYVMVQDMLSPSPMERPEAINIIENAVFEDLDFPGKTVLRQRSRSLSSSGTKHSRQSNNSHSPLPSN
As to the kind of experiment: PERK in vitro activity assay (isolated), TR-FRET kinase assay. Format: biochemical. The settings on record: isolated PERK enzyme, 1.5 μM ATP; read-out: Biochemical IC50. An excerpt:
PERK In Vitro Activity Assay (Isolated):
In vitro Inhibition of PERK Enzyme Activity (isolated) Recombinant human EIF2AK2 (PKR) catalytic domain (amino acids 252-551), EIF2AK3 (PERK) catalytic domain (amino acids 536-1116), GFP-eIF2a substrate, and Terbium-labelled phospho-eIF2a antibody is obtained (Invitrogen, Carlsbad, Calif.).
Express and purify HIS-SUMO-GCN2 catalytic domain (amino acids 584-1019) from E. coli. Perform TR-FRET kinase assays in the absence or presence of inhibitors in a reaction buffer consisting of 50 mM HEPES, pH 7.5, 10 mM MgCb, 1.0 mM EGTA, and 0.01% Brij-35, and 100-200 nM GFP-eIF2a substrate. […] Add test compound, initiate the reaction by addition of enzyme, and incubate at room temperature for 45 minutes. Stop the reaction by addition of EDTA to a final concentration of 10 mM, add Terbium-labelled phospho-eIF2a antibody at a final concentration of 2 nM, and incubate for 90 minutes. Monitor the resulting fluorescence in an EnVison® Multilabel reader (PerkinElmer, Waltham, Mass.). Determine TR-FRET ratios and the resulting IC50 values using a 4-parameter nonlinear logistic equation as shown: Y=(A+((B−A)/(1+((C/x)[…])))) where, Y=% specific inhibition, A=Bottom of the curve, B=Top of the curve, C=absolute IC50 (concentration causing 50% inhibition), and D=hill slope.
In general terms: In TR-FRET formats the signal depends on donor and acceptor labels being close together.

Experiment [2] relates to GFP-eIF2α in HEK293 cells. Briefly: PERK cellular assay, TR-FRET in HEK293-EGFP-eIF2a cells after tunicamycin-induced ER stress. The settings on record: HEK293-EGFP-eIF2a cells, tunicamycin 2 hours, read-out: Cellular eIF2α IC50. Format: cell-based. The protocol: Stable cell lines were created in HEK293 cells using lentiviral particles harboring an expression vector for GFP-eIF2α. Cells were selected using puromycin and enriched using fluorescence activated cell sorting against GFP. HEK293-EGFP-eIF2a cells were plated at 5000 cells/well in 384-well assay plates and incubated overnight at 37° C., 5% CO2. Inhibitor compounds were added to the wells by Echo acoustic dispensing and incubated for 30 minutes at 37° C., 5% CO2 prior to induction of ER stress by addition of tunicamycin to […] for 2 hours. Cells were lysed and TR-FRET was measured in an EnVision plate reader (PerkinElmer). FRET ratio data was normalized to signal from lysates treated with DMSO vehicle control and plotted as percent inhibition against 10-point; 3-fold dilution series of inhibitors. IC50 values were calculated using 4-parameter logistical fitting in XLFit.

What is called IC50 is the point on the concentration scale where inhibition reaches its midpoint.

Structures are written as SMILES. Where two headings read alike, the source gives them in different places.

Take `Cc1cc(F)cc(C(O)C(=O)Nc2ccc(-c3cn(C)c4nc(C)nc(N)c34)c(F)c2)c1` (stereo not drawn) [Example 86, N-(4-(4-amino-2,7-dimethyl-7H-pyrrolo[2,3-d]pyrimidin-5-yl)-3-fluorophenyl)-2-(3-fluoro-5-methylphenyl)-2-hydroxyacetamide]: the values for the IC50 in experiment [1] and in experiment [2] were 1 to 25 nM and 51 to 100 nM, respectively.

Take `CCc1cccc(C(O)C(=O)Nc2ccc(-c3cn(C)c4nc(C)nc(N)c34)c(F)c2)c1` (stereo not drawn) [Example 76, N-(4-(4-amino-2,7-dimethyl-7H-pyrrolo[2,3-d]pyrimidin-5-yl)-3-fluorophenyl)-2-(3-ethylphenyl)-2-hydroxyacetamide]: the IC50 in experiment [1] and in experiment [2] was 1 to 25 nM throughout.

Regarding `Cc1cc(NC(=O)C(O)c2cccc(F)c2)c(F)cc1-c1cn(C)c2ncnc(N)c12` (stereo not drawn) [Example 120, N-(4-(4-amino-7-methyl-7H-pyrrolo[2,3-d]pyrimidin-5-yl)-2-fluoro-5-methylphenyl)-2-(3-fluorophenyl)-2-hydroxyacetamide], the IC50 in experiment [1] lay in the range of 51 to 100 nM; in experiment [2], 251 to 500 nM.

For the compound `Cc1cc(F)cc(C(O)C(=O)Nc2ccc(-c3cn(C)c4nc(C)nc(N)c34)c(C)c2)c1` (stereo not drawn) [Example 57, N-(4-(4-amino-2,7-dimethyl-7H-pyrrolo[2,3-d]pyrimidin-5-yl)-3-methylphenyl)-2-(3-fluoro-5-methylphenyl)-2-hydroxyacetamide], the figures for the IC50 in experiment [1] and in experiment [2] were 26 to 50 nM and 101 to 250 nM, respectively.

As for `Cc1nc(N)c2c(-c3ccc(NC(=O)C(O)c4cc(F)cc(C(F)(F)F)c4)cc3C)cn(C)c2n1` (single isomer, unassigned) [Example 54, N-(4-(4-amino-2,7-dimethyl-7H-pyrrolo[2,3-d]pyrimidin-5-yl)-3-methylphenyl)-2-(3-fluoro-5-(trifluorophenyl)phenyl)-2-hydroxyacetamide], the IC50 in experiment [1] is 1 to 25 nM; in experiment [2], 26 to 50 nM.

Take `Cc1nc(N)c2c(-c3ccc(NC(=O)C(O)c4cccc(Cl)c4)c(F)c3F)cn(C)c2n1` (stereo not drawn) [Example 112, N-(4-(4-amino-2,7-dimethyl-7H-pyrrolo[2,3-d]pyrimidin-5-yl)-2,3-difluorophenyl)-2-(3-chlorophenyl)-2-hydroxyacetamide]: the figures for the IC50 in experiment [1] and in experiment [2] were 101 to 250 nM and 501 to 1000 nM, respectively.

In the case of `Cn1cc(-c2ccc(NC(=O)C(O)c3cccc(F)c3)cc2)c2c(N)ncnc21` (stereo not drawn) [Example 30, N-(4-(4-amino-7-methyl-7H-pyrrolo[2,3-d]pyrimidin-5-yl)phenyl)-2-(3-fluorophenyl)-2-hydroxyacetamide], the IC50 in experiment [1] was 1 to 25 nM; in experiment [2], 101 to 250 nM.

For `Cn1cc(-c2ccc(NC(=O)C(O)c3cccc(F)c3)cc2F)c2c(N)ncnc21` (single isomer, unassigned) [Example 3, N-(4-(4-amino-7-methyl-7H-pyrrolo[2,3-d]pyrimidin-5-yl)-3-fluorophenyl)-2-(3-fluorophenyl)-2-hydroxyacetamide], the IC50 in experiment [1] was in the range of 1 to 25 nM; in experiment [2], 26 to 50 nM.

As to `COc1ccccc1CC(=O)Nc1ccc(-c2cn(C)c3ncnc(N)c23)c(C)c1` [Example 138, N-(4-(4-amino-7-methyl-7H-pyrrolo[2,3-d]pyrimidin-5-yl)-3-methylphenyl)-2-(2-methoxyphenyl)acetamide], the IC50 in experiment [1] is 1 to 25 nM; in experiment [2] (Homo sapiens, HEK293, 2 h), 101 to 250 nM.

As for `Cn1cc(-c2ccc(NC(=O)C(O)c3cccc(F)c3)cc2Cl)c2c(N)ncnc21` (stereo not drawn) [Example 15, N-(4-(4-amino-7-methyl-7H-pyrrolo[2,3-d]pyrimidin-5-yl)-3-chlorophenyl)-2-(3-fluorophenyl)-2-hydroxyacetamide], the results for the IC50 in experiment [1] and in experiment [2] were 26 to 50 nM and 51 to 100 nM, respectively.

Take `Cc1cc(NC(=O)CC2CCC2)ccc1-c1cn(C)c2ncnc(N)c12` [Example 164, N-(4-(4-amino-7-methyl-7H-pyrrolo[2,3-d]pyrimidin-5-yl)-3-methylphenyl)-2-cyclobutyl-acetamide]: the IC50 was in the range of 51 to 100 nM in experiment [1] and 2000 to 3000 nM in experiment [2] (Homo sapiens, HEK293, 2 h).

On to `Cn1cc(-c2ccc(NC(=O)C(O)c3cccc(F)c3)cc2F)c2c(N)ncnc21` (single isomer, unassigned) [Example 4, N-(4-(4-amino-7-methyl-7H-pyrrolo[2,3-d]pyrimidin-5-yl)-3-fluorophenyl)-2-(3-fluorophenyl)-2-hydroxyacetamide], for which the IC50 in experiment [1] and in experiment [2] was 1 to 25 nM each time.

For the compound `Cc1nc(N)c2c(-c3ccc(NC(=O)C(O)c4cccc(C(F)(F)F)c4)cc3Cl)cn(C)c2n1` (stereo not drawn) [Example 101, N-(4-(4-amino-2,7-dimethyl-7H-pyrrolo[2,3-d]pyrimidin-5-yl)-3-chlorophenyl)-2-hydroxy-2-(3-(trifluoromethyl)phenyl)acetamide], the IC50 in experiment [1] and in experiment [2] was 1 to 25 nM in each case.

For `Cc1cc(NC(=O)C(O)c2cccc(F)c2)c(F)cc1-c1cn(C)c2ncnc(N)c12` (stereo not drawn) [Example 119, N-(4-(4-amino-7-methyl-7H-pyrrolo[2,3-d]pyrimidin-5-yl)-2-fluoro-5-methylphenyl)-2-(3-fluorophenyl)-2-hydroxyacetamide], the IC50 in experiment [1] and in experiment [2] was 1 to 25 nM each time.

`Cc1cccc(C(O)C(=O)Nc2ccc(-c3cn(C)c4ncnc(N)c34)c(C)c2)n1` (stereo not drawn) [Example 60, N-(4-(4-amino-7-methyl-7H-pyrrolo[2,3-d]pyrimidin-5-yl)-3-methylphenyl)-2-hydroxy-2-(6-methylpyridin-2-yl)acetamide]: the IC50 in experiment [1] fell in the range of 1 to 25 nM; in experiment [2] (Homo sapiens, HEK293, 2 h), 101 to 250 nM.

Consider `Cc1cc(NC(=O)c2ccccc2)ccc1-c1cn(C)c2ncnc(N)c12` [Example 167, N-(4-(4-amino-7-methyl-7H-pyrrolo[2,3-d]pyrimidin-5-yl)-3-methylphenyl)benzamide], for which the IC50 in experiment [1] was 101 to 250 nM; in experiment [2] (Homo sapiens, HEK293, 2 h) it was 3000 to 4000 nM.

Consider `COc1cc(NC(=O)C(O)c2cccc(F)c2)ccc1-c1cn(C)c2ncnc(N)c12` (stereo not drawn) [Example 103, N-(4-(4-amino-7-methyl-7H-pyrrolo[2,3-d]pyrimidin-5-yl)-3-methoxyphenyl)-2-(3-fluorophenyl)-2-hydroxyacetamide], for which the results for the IC50 in experiment [1] and in experiment [2] were 101 to 250 nM and 2000 to 3000 nM, respectively.

For `Cc1cc(NC(=O)Cc2cccc(C(F)(F)F)c2)ccc1-c1cn(C)c2ncnc(N)c12` [Example 158, N-(4-(4-amino-7-methyl-7H-pyrrolo[2,3-d]pyrimidin-5-yl)-3-methylphenyl)-2-(3-(trifluoromethyl)phenyl)acetamide], the IC50 in experiment [1] was 1 to 25 nM.

In the case of `Cc1cc(NC(=O)Cc2ccccc2F)ccc1-c1cn(C)c2ncnc(N)c12` [Example 160, N-(4-(4-amino-7-methyl-7H-pyrrolo[2,3-d]pyrimidin-5-yl)-3-methylphenyl)-2-(2-fluorophenyl)acetamide], the IC50 in experiment [1] fell in the range of 1 to 25 nM.

Take `Cc1cc(NC(=O)Cc2cccc(F)c2)ccc1-c1cn(C)c2ncnc(N)c12` [Example 161]: the IC50 in experiment [1] is 26 to 50 nM.

Turning to `Cc1nc(N)c2c(-c3ccc(NC(=O)C(O)c4ccccc4C)cc3F)cn(C)c2n1` (stereo not drawn) [Example 72, N-(4-(4-amino-2,7-dimethyl-7H-pyrrolo[2,3-d]pyrimidin-5-yl)-3-fluorophenyl)-2-hydroxy-2-(o-tolyl)acetamide], the IC50 in experiment [2] fell in the range of 26 to 50 nM.

`Cc1nc(N)c2c(-c3ccc(NC(=O)C(O)c4ccccc4C)cc3F)cn(C)c2n1` (stereo not drawn) [Example 71, N-(4-(4-amino-2,7-dimethyl-7H-pyrrolo[2,3-d]pyrimidin-5-yl)-3-fluorophenyl)-2-hydroxy-2-(o-tolyl)acetamide]: the IC50 in experiment [2] was 2000 to 3000 nM.

Values taken from patent publication US20220356186A1, “PERK INHIBITING PYRROLOPYRIMIDINE COMPOUNDS” (HiberCell, Inc., priority 2019, published 2022).
